Measured values as given in the supplement of paper PMC10307832.

What was measured:
Assay in all cases: relative viability (nuclei count vs DMSO), 5 days (fraction); higher = more cells survive
[1] = system: NCI-H1792
In short: (§1)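 A single step with final 0.05% Triton X-100, 1% formaldehyde and 1 ug/ml Hoechst fixed the cells and stained nuclei 5 days after treatment. Lung cancer cell lines in 1536-well plates had been treated by pin tool the day after seeding with one drug alone or a fixed anchor-drug dose plus five library-drug doses (not always all listed) in √10 steps, and nuclei were counted on 4× images. Relative viability is the ratio of nuclei in treated wells to nuclei in vehicle wells, taken as the median of duplicate plates.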

[2] = system: A-427
In short: as §1

[3] = system: NCI-H322M
In short: as §1

[4] = system: NCI-H3122
In short: as §1

[5] = system: NCI-H1437
In short: as §1

[6] = system: PC-14
In short: as §1

[7] = system: EKVX
In short: as §1

[8] = system: LCLC-97TM1
In short: as §1

[9] = system: LK-2
In short: as §1

[10] = system: NCI-H1915
In short: as §1

[11] = system: LXF-289
In short: as §1

[12] = system: NCI-H2087
In short: as §1

[13] = system: COR-L23
In short: as §1

[14] = system: NCI-H460
In short: as §1

[15] = system: NCI-H661
In short: as §1

[16] = system: NCI-H1666
In short: as §1

[17] = system: NCI-H1563
In short: as §1

[18] = system: NCI-H647
In short: as §1

[19] = system: NCI-H2085
In short: as §1

[20] = system: NCI-H2126
In short: as §1

[21] = system: LC-2-ad
In short: as §1

Molecule `Cc1cn(-c2cc(NC(=O)c3ccc(C)c(Nc4nccc(-c5cccnc5)n4)c3)cc(C(F)(F)F)c2)cn1` [Nilotinib] + Nc1nc2[nH]cc(CCc3ccc(C(=O)N[C@@H](CCC(=O)O)C(=O)O)cc3)c2c(=O)[nH]1 [Pemetrexed] (partner 0.2 µM) has a relative viability ([1]; first compound 0.001 µM) of 0.623, a relative viability ([1]; first compound 0.003162 µM) of 0.899 and a relative viability ([1]; first compound 0.01 µM) of 0.72. For the same molecule, the relative viability ([1]; first compound 0.03162 µM) was 0.525, the relative viability ([1]; first compound 0.1 µM) was 0.709 and the relative viability ([2]; first compound 0.003162 µM) was 0.963. The relative viability ([2]; first compound 0.01 µM) was 0.952, the relative viability ([2]; first compound 0.1 µM) was 0.852 and the relative viability ([3]; first compound 0.001 µM) was 0.757. For the same molecule, the relative viability ([3]; first compound 0.003162 µM) was 0.774, the relative viability ([3]; first compound 0.01 µM) was 0.576 and the relative viability ([3]; first compound 0.03162 µM) was 0.593. It also gave a relative viability ([3]; first compound 0.1 µM) of 0.645, a relative viability ([4]; first compound 0.001 µM) of 0.18 and a relative viability ([4]; first compound 0.003162 µM) of 0.226. The relative viability ([4]; first compound 0.01 µM) was 0.212, the relative viability ([4]; first compound 0.03162 µM) was 0.2 and the relative viability ([4]; first compound 0.1 µM) was 0.195. For the same molecule, the relative viability ([5]; first compound 0.001 µM) was 0.28, the relative viability ([5]; first compound 0.003162 µM) was 0.34 and the relative viability ([5]; first compound 0.01 µM) was 0.343. It also gave a relative viability ([5]; first compound 0.03162 µM) of 0.276, a relative viability ([5]; first compound 0.1 µM) of 0.311 and a relative viability ([6]; first compound 0.001 µM) of 0.139. It also gave a relative viability ([6]; first compound 0.003162 µM) of 0.19, a relative viability ([6]; first compound 0.01 µM) of 0.0904 and a relative viability ([6]; first compound 0.03162 µM) of 0.0585. The relative viability ([6]; first compound 0.1 µM) was 0.0757, the relative viability ([7]; first compound 0.001 µM) was 0.33 and the relative viability ([7]; first compound 0.003162 µM) was 0.27. The relative viability ([7]; first compound 0.01 µM) was 0.471, the relative viability ([7]; first compound 0.03162 µM) was 0.353 and the relative viability ([8]; first compound 0.001 µM) was 0.18. For the same molecule, the relative viability ([8]; first compound 0.003162 µM) was 0.165, the relative viability ([8]; first compound 0.01 µM) was 0.175 and the relative viability ([8]; first compound 0.03162 µM) was 0.183. The relative viability ([8]; first compound 0.1 µM) was 0.0978, the relative viability ([9]; first compound 0.001 µM) was 0.184 and the relative viability ([9]; first compound 0.003162 µM) was 0.3. The relative viability ([9]; first compound 0.01 µM) was 0.332, the relative viability ([9]; first compound 0.03162 µM) was 0.193 and the relative viability ([9]; first compound 0.1 µM) was 0.225. For the same molecule, the relative viability ([10]; first compound 0.001 µM) was 0.435, the relative viability ([10]; first compound 0.003162 µM) was 0.427 and the relative viability ([10]; first compound 0.01 µM) was 0.532. It also gave a relative viability ([10]; first compound 0.03162 µM) of 0.449, a relative viability ([10]; first compound 0.1 µM) of 0.438 and a relative viability ([11]; first compound 0.001 µM) of 0.836. The relative viability ([11]; first compound 0.003162 µM) was 1.07, the relative viability ([11]; first compound 0.01 µM) was 1.01 and the relative viability ([11]; first compound 0.03162 µM) was 0.878. It also gave a relative viability ([11]; first compound 0.1 µM) of 0.519, a relative viability ([12]; first compound 0.001 µM) of 0.67 and a relative viability ([12]; first compound 0.003162 µM) of 0.745. For the same molecule, the relative viability ([12]; first compound 0.01 µM) was 0.555, the relative viability ([12]; first compound 0.03162 µM) was 0.614 and the relative viability ([12]; first compound 0.1 µM) was 0.341. For the same molecule, the relative viability ([13]; first compound 0.001 µM) was 0.187, the relative viability ([13]; first compound 0.003162 µM) was 0.183 and the relative viability ([13]; first compound 0.01 µM) was 0.19. It also gave a relative viability ([13]; first compound 0.03162 µM) of 0.163, a relative viability ([13]; first compound 0.1 µM) of 0.163 and a relative viability ([14]; first compound 0.001 µM) of 0.0733. For the same molecule, the relative viability ([14]; first compound 0.003162 µM) was 0.0599, the relative viability ([14]; first compound 0.01 µM) was 0.0632 and the relative viability ([14]; first compound 0.03162 µM) was 0.0736. For the same molecule, the relative viability ([14]; first compound 0.1 µM) was 0.0505, the relative viability ([15]; first compound 0.001 µM) was 0.966 and the relative viability ([15]; first compound 0.003162 µM) was 1.03. For the same molecule, the relative viability ([15]; first compound 0.01 µM) was 1.07, the relative viability ([15]; first compound 0.03162 µM) was 0.888 and the relative viability ([15]; first compound 0.1 µM) was 0.893. For the same molecule, the relative viability ([16]; first compound 0.001 µM) was 0.768, the relative viability ([16]; first compound 0.003162 µM) was 0.78 and the relative viability ([16]; first compound 0.01 µM) was 0.846. It also gave a relative viability ([16]; first compound 0.03162 µM) of 0.717, a relative viability ([16]; first compound 0.1 µM) of 0.9 and a relative viability ([17]; first compound 0.001 µM) of 0.746. For the same molecule, the relative viability ([17]; first compound 0.003162 µM) was 0.712, the relative viability ([17]; first compound 0.01 µM) was 0.796 and the relative viability ([17]; first compound 0.03162 µM) was 0.667. It also gave a relative viability ([17]; first compound 0.1 µM) of 0.552, a relative viability ([18]; first compound 0.001 µM) of 0.158 and a relative viability ([18]; first compound 0.003162 µM) of 0.158. It also gave a relative viability ([18]; first compound 0.01 µM) of 0.118, a relative viability ([18]; first compound 0.03162 µM) of 0.138 and a relative viability ([18]; first compound 0.1 µM) of 0.118. It also gave a relative viability ([19]; first compound 0.001 µM) of 0.981, a relative viability ([19]; first compound 0.003162 µM) of 0.907 and a relative viability ([19]; first compound 0.01 µM) of 1. It also gave a relative viability ([19]; first compound 0.03162 µM) of 0.932, a relative viability ([19]; first compound 0.1 µM) of 0.562 and a relative viability ([20]; first compound 0.001 µM) of 0.68. The relative viability ([20]; first compound 0.003162 µM) was 0.767, the relative viability ([20]; first compound 0.01 µM) was 0.79 and the relative viability ([20]; first compound 0.03162 µM) was 0.656. For the same molecule, the relative viability ([20]; first compound 0.1 µM) was 0.47, the relative viability ([21]; first compound 0.001 µM) was 0.248 and the relative viability ([21]; first compound 0.003162 µM) was 0.251. It also gave a relative viability ([21]; first compound 0.01 µM) of 0.257, a relative viability ([21]; first compound 0.03162 µM) of 0.251 and a relative viability ([21]; first compound 0.1 µM) of 0.248.
